pIC50: −log10 of the molar value. Values after ≈ are worked out from the molar mass of the structure shown.
Legend:
[1] = target: T1, liver carboxylesterase (CES) (Sus scrofa, UniProt Q29550); assay: Inhibition of pig liver CES at 20 uM relative to control; assay type: tissue-based
T1 sequence (Q29550 whole entry): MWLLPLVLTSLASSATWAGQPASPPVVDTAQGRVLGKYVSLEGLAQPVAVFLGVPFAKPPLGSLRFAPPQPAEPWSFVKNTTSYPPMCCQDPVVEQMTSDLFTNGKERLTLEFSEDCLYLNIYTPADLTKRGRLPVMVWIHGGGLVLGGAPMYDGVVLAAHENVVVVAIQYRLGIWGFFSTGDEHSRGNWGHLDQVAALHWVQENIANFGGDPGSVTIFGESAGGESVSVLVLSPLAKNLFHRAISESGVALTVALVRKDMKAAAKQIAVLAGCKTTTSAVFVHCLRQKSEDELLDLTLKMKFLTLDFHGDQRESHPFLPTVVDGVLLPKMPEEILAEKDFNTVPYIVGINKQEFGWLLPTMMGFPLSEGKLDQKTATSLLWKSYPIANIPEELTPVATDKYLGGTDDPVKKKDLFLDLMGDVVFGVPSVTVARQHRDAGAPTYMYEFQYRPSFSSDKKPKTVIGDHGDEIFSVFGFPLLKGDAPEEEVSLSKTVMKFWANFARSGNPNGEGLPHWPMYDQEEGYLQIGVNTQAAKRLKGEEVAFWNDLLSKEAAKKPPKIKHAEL

Aspergillus niger [2] = assay: Antifungal activity against Aspergillus niger; assay type: functional
Escherichia coli [3] = assay: Antibacterial activity against Escherichia coli; assay type: functional
Bacillus subtilis [4] = assay: Antibacterial activity against Bacillus subtilis; assay type: functional
Aspergillus clavatus = assay: Antifungal activity against Aspergillus clavatus; assay type: functional
Candida albicans [5] = assay: Antifungal activity against Candida albicans assessed as zone of inhibition; assay type: functional
Mus musculus [6] = assay: Antiinflammatory activity in mouse assessed as inhibition of paw edema after 4 hrs; assay type: functional; set-up: scale not given: the % may be the effect or the level left
Staphylococcus aureus [7] = assay: Antibacterial activity against Staphylococcus aureus assessed as zone of inhibition at 5 mg/ml; assay type: functional; conditions: read-out: IZ
Proteus vulgaris = assay: Antibacterial activity against Proteus vulgaris assessed as zone of inhibition at 5 mg/ml; assay type: functional; conditions: read-out: IZ
Streptococcus mutans = assay: Antibacterial activity against Streptococcus mutans assessed as zone of inhibition at 5 mg/ml; assay type: functional; conditions: read-out: IZ
Escherichia coli [8] = assay: Antibacterial activity against Escherichia coli assessed as zone of inhibition at 5 mg/ml; assay type: functional; conditions: read-out: IZ
Enterococcus faecalis = assay: Antibacterial activity against Enterococcus faecalis assessed as zone of inhibition at 5 mg/ml; assay type: functional; conditions: read-out: IZ
Bacillus subtilis [9] = assay: Antibacterial activity against Bacillus subtilis assessed as zone of inhibition at 5 mg/ml; assay type: functional; conditions: read-out: IZ
HEK293 = assay: Cytotoxicity against HEK293 cells; assay type: functional, Homo sapiens
Mus musculus [10] = assay: Anxiolytic activity in mouse assessed as time spent in light at 1 mg/kg, po; assay type: functional
Mus musculus [11] = assay: Anxiolytic activity in mouse assessed as transfer number at 1 mg/kg, po; assay type: functional
Bacillus subtilis [12] = assay: Antibacterial activity against Bacillus subtilis assessed as zone of inhibition; assay type: functional
Escherichia coli [13] = assay: Antibacterial activity against Escherichia coli assessed as zone of inhibition; assay type: functional
Salmonella typhimurium = assay: Antibacterial activity against Salmonella typhimurium assessed as zone of inhibition; assay type: functional, Salmonella enterica subsp. enterica serovar Typhimurium
Aspergillus niger [14] = assay: Antifungal activity against Aspergillus niger assessed as zone of inhibition; assay type: functional
CHO-K1 = assay: Cytotoxicity against CHO-K1 cells by MTT assay; assay type: toxicity, cell-based, Cricetulus griseus; set-up: concentration or dose not given beside the values; conditions: chinese hamster
Mus musculus [15] = assay: Antiinflammatory activity in mouse assessed as inhibition of paw edema after 24 hrs; assay type: functional; set-up: scale not given: the % may be the effect or the level left
Staphylococcus aureus [16] = assay: Antibacterial activity against Staphylococcus aureus; assay type: functional
Pseudomonas aeruginosa [17] = assay: Antibacterial activity against Pseudomonas aeruginosa; assay type: functional
Pseudomonas aeruginosa [18] = assay: Antibacterial activity against Pseudomonas aeruginosa assessed as zone of inhibition; assay type: functional
Staphylococcus aureus [19] = assay: Antibacterial activity against Staphylococcus aureus assessed as zone of inhibition; assay type: functional
Candida albicans [20] = assay: Antifungal activity against Candida albicans; assay type: functional
HCT-116 [21] = assay: Cytotoxicity against human HCT-116 cells; assay type: functional
HCT-116 [22] = assay: Cytotoxicity against human HCT-116 cells by MTT assay; assay type: functional, cell-based
HepG2 = assay: Cytotoxicity against human HepG2 cells by MTT assay; assay type: functional, cell-based
MCF7 = assay: Cytotoxicity against human MCF7 cells by MTT assay; assay type: functional, cell-based
[23] = Antioxidant activity assessed as ABTS radical scavenging activity; assay type: functional
Rattus norvegicus [24] = assay: Analgesic activity in Sprague-Dawley rat at 15 mg/kg after 2 hrs by hot plate test; assay type: functional
A549 = assay: Cytotoxicity against human A549 cells by MTT assay; assay type: functional, cell-based
SiHa = assay: Cytotoxicity against human SiHa cells by MTT assay; assay type: functional, cell-based
Rattus norvegicus [25] = assay: Analgesic activity in Sprague-Dawley rat at 15 mg/kg after 1 hr by hot plate test; assay type: functional
[26] = Inhibition of Hepatitis C virus NS3 protease; assay type: functional, Hepacivirus hominis

O=[N+]([O-])c1ccc(OP(=O)(O)Oc2ccc([N+](=O)[O-])cc2)cc1
inhibition at 20 µM [1]: 1.8%

Cc1cc(NN2C(=O)C3CCCCC3C2=O)n2ncc(C#N)c2n1 (stereo unspecified)
MIC (Aspergillus niger [2]): 10 µg/mL (≈ 30.8 µM) | MIC (Escherichia coli [3]): 10 µg/mL (≈ 30.8 µM) | MIC (Bacillus subtilis [4]): 10 µg/mL (≈ 30.8 µM) | MIC (Aspergillus clavatus): 10 µg/mL (≈ 30.8 µM) | inhibition zone (IZ) (Candida albicans [5]): 19.1 mm

CC(C)Cc1ccc(C(C)C(=O)O)cc1 (stereo unspecified) [IBUPROFEN]
Activity (Mus musculus [6]): 66.67%

Nc1nc2c(/N=N/c3ccc(C(F)(F)F)cc3)c(N)nn2c(N)c1/N=N/c1ccc(F)cc1
zone of inhibition at 5000 µg/mL (Staphylococcus aureus [7]): 10 mm

Cc1cc(C)nc(NS(=O)(=O)c2ccc(/N=N/c3c(N)nc4c(/N=N/c5ccc(F)cc5)c(N)nn4c3N)cc2)n1
zone of inhibition at 5000 µg/mL (Proteus vulgaris): 9 mm | zone of inhibition at 5000 µg/mL (Streptococcus mutans): 9 mm | zone of inhibition at 5000 µg/mL (Escherichia coli [8]): 9 mm | zone of inhibition at 5000 µg/mL (Enterococcus faecalis): 9 mm | zone of inhibition at 5000 µg/mL (Staphylococcus aureus [7]): 9 mm | zone of inhibition at 5000 µg/mL (Bacillus subtilis [9]): 9 mm

Clc1ccc(-c2cc3nccc(-c4ccc(Cl)cc4)n3n2)cc1
Activity (HEK293): 44.2%

CN1C(=O)CN=C(c2ccccc2)c2cc(Cl)ccc21 [DIAZEPAM]
Activity (Mus musculus [10]): 171.6% | Activity (Mus musculus [11]): 171.6

Cc1ccc(-n2cnc3c(cnn3-c3cc(C)nc4c(C#N)cnn34)c2=O)cc1
MIC (Aspergillus niger [2]): 10 µg/mL (≈ 26.2 µM) | inhibition zone (IZ) (Bacillus subtilis [12]): 14 mm | MIC (Aspergillus clavatus): 10 µg/mL (≈ 26.2 µM) | inhibition zone (IZ) (Escherichia coli [13]): 12.2 mm

Nc1nc2c(/N=N/c3ccc(F)cc3)c(N)nn2c(N)c1/N=N/c1ccc(F)cc1
zone of inhibition at 5000 µg/mL (Escherichia coli [8]): 10 mm

Nc1nn2c(-c3ccc(S(=O)(=O)c4ccccc4)cc3)ccnc2c1/N=N/c1ccccc1[N+](=O)[O-]
inhibition zone (IZ) (Salmonella typhimurium): 26.6 mm | inhibition zone (IZ) (Aspergillus niger [14]): 26.3 mm | inhibition zone (IZ) (Escherichia coli [13]): 25.5 mm

COc1ccc(-c2cnc3c(C(=O)Nc4c(C)n(C)n(-c5ccccc5)c4=O)cnn3c2N)cc1
Activity (CHO-K1): 72.96% | Activity (Mus musculus [15]): 25%

NC(=O)c1c(Nc2ccccc2)nn2c(-c3ccccc3)ccnc12
MIC (Aspergillus niger [2]): 15.6 µg/mL (≈ 47.4 µM) | MIC (Staphylococcus aureus [16]): 7.81 µg/mL (≈ 23.7 µM) | MIC (Pseudomonas aeruginosa [17]): 7.81 µg/mL (≈ 23.7 µM) | MIC (Escherichia coli [3]): 15.6 µg/mL (≈ 47.4 µM) | inhibition zone (IZ) (Bacillus subtilis [12]): 12 mm | MIC (Bacillus subtilis [4]): 3.9 µg/mL (≈ 11.8 µM) | inhibition zone (IZ) (Pseudomonas aeruginosa [18]): 9 mm | inhibition zone (IZ) (Staphylococcus aureus [19]): 10 mm | inhibition zone (IZ) (Escherichia coli [13]): 7 mm

COc1ccc(Nc2nn3c(N)c(C#N)c(-c4ccc(F)cc4)nc3c2C(N)=O)cc1
MIC (Candida albicans [20]): 15.6 µg/mL (≈ 37.4 µM)

COc1ccc(-c2ccnc3cc(-c4ccc(Cl)cc4)nn23)cc1
Activity (HCT-116 [21]): 37%

COc1ccc(-c2cc3nccc(-c4ccccc4)n3n2)cc1
Activity (HCT-116 [21]): 26%

COc1ccc(-c2ccnc3cc(-c4ccccc4)nn23)cc1
Activity (HEK293): 48%

Nc1nc2c(/N=N/c3ccc(C(F)(F)F)cc3)c(N)nn2c(N)c1/N=N/c1ccc(C(F)(F)F)cc1
IC50 (HCT-116 [22]): 0.4 µg/mL (≈ 0.787 µM) | IC50 (HepG2): 0.6 µg/mL (≈ 1.18 µM) | zone of inhibition at 5000 µg/mL (Bacillus subtilis [9]): 8 mm | IC50 (MCF7): 0.3 µg/mL (≈ 0.59 µM)

Cc1ccc(N/N=C2\C(=O)n3nc(-c4ccccc4)cc3N=C2C(F)(F)F)cc1
Activity [23]: 0.19 µM | inhibition at 20 µM [1]: 2.91% | Activity (Rattus norvegicus [24]): 47.4%

Nc1nn2c(-c3ccc(S(=O)(=O)c4ccccc4)cc3)ccnc2c1/N=N/c1cccc(Cl)c1
inhibition zone (IZ) (Salmonella typhimurium): 26.3 mm | inhibition zone (IZ) (Aspergillus niger [14]): 25.1 mm | inhibition zone (IZ) (Staphylococcus aureus [19]): 23.4 mm

NC(=O)c1c(Nc2ccccc2)nn2c(-c3ccccc3)cc(-c3ccccc3)nc12
MIC (Candida albicans [20]): 15.6 µg/mL (≈ 38.5 µM)

COc1ccc(-c2cc(-c3nn4cc(-c5ccncc5)cnc4c3S(=O)(=O)c3cc([N+](=O)[O-])c(OC)c([N+](=O)[O-])c3)on2)cc1
pIC50 (A549): 7.27 | pIC50 (SiHa): 7.10

CC1=Nc2cc(-c3ccccc3)nn2C(=O)/C1=N\Nc1ccc(C)cc1
Activity [23]: 0.21 µM | Activity (Rattus norvegicus [25]): 43.9% | inhibition at 20 µM [1]: 22.8% | Activity (Rattus norvegicus [24]): 65.9%

N#C/C(=C/c1ccc(Cl)cc1)c1nn2c(-c3cccs3)cc(C(F)(F)F)nc2c1C#N
IC50 [26]: 7.33 µg/mL (≈ 16.1 µM)

CC(=O)c1cnc2c(C(=O)Nc3c(C)n(C)n(-c4ccccc4)c3=O)cnn2c1C
Activity (CHO-K1): 72.46% | Activity (Mus musculus [15]): 16.57%

CC(C)OC(=O)[C@H](C)N[P@](=O)(OC[C@H]1O[C@@H](n2ccc(=O)[nH]c2=O)[C@](C)(F)[C@@H]1O)Oc1ccccc1 [SOFOSBUVIR]
IC50 [26]: 3.2 µg/mL (≈ 6.04 µM)

Reference: ChEMBL document CHEMBL5241120, “Insights into the medicinal chemistry of heterocycles integrated with a pyrazolo[1,5-a]pyrimidine scaffold” (RSC Med Chem, 2022)
